In US6432415B1, “Pharmaceutical gel and aerosol formulations and methods to administer the same to skin and mucosal surfaces” (Axrix Laboratories, Inc., priority 1999, dated 2002):
≈ marks a conversion by molar mass, not a printed value.

Assays:
Type in all cases: physicochemical
[1] = Solubility of Amlexanox in 95% ethanol with imidazole (visual observation); settings: 200 mM imidazole vs no imidazole
Procedure: Amlexanox (4.8 mg to 20.5 mg) was added to seven glass scintillation vials. 95% Ethanol (in 5-100 uL aliquots) with various concentrations of imidazole (0-200 mM) was added to the vials containing Amlexanox. The total volume of 95% ethanol added to result in Amlexanox solubilization (by visual observation) was recorded.

[2] = Solubility of Amlexanox in solvents and at different pH
Procedure: To illustrate the many aspects of the present invention, it is provided herein several Examples of formulations which comprise a specific not-very-soluble drug known as Amlexanox or 2-amino-7-(1-methylethyl)-5-oxo-5H-[1]benzopyrano-[2,3-b]-pyridine-3-carboxylic acid. Amlexanox is not very soluble in lower alkyl alcohols (0.58 mg/mL, in dehydrated ethanol) or water (0.005 mg/mL). However, solubility of Amlexanox increases with pH. […] Thus, at any given time, Amlexanox may be present in the formulation as a solution or suspension or both.

[3] = Solubility of Propellant 152a in aqueous and ethanol/water solvents, with or without ethyl cellulose
Procedure: In one aspect, the propellant is 1,1-difluoroethane also known as Propellant 152a, commercially available under the trade mark Dymel®. Propellant 152a is slightly soluble in aqueous solvents (solubility of less than 1% by weight).
The inventors have experimented with ethanol as a cosolvent to be used in conjunction with Propellant 152a. When water is added to the ethanol/Propellant 152a mixture, the solubility of Propellant 152a decreases. […] This unexpected increase in solubility was not observed when hydroxyethyl cellulose or hydroxypropyl cellulose was used instead of ethyl cellulose.

Row | SMILES | solubility in 95% ethanol with 200 mM imidazole relative to absence of imidazole [1] | solubility ([2]; aqueous buffer, pH 3.0) | solubility ([2]; in water) | solubility ([2]; organic solvent or mixture, in dehydrated ethanol) | solubility ([2]; pH 5.96, aqueous buffer) | solubility of Propellant 152a ([3]; aqueous solvents) | solubility of Propellant 152a ([3]; ethyl cellulose about 0.7% to about 1.4%, ethanol/water (80:20)) | solubility of Propellant 152a ([3]; ethyl cellulose about 0.75% to about 10% added to ethanol or ethanol/water mixtures) | solubility of Propellant 152a ([3]; mixture of ethanol/water (80:20), no ethyl cellulose)
1 | CC(C)c1ccc2oc3nc(N)c(C(=O)O)cc3c(=O)c2c1 [Amlexanox, 2-amino-7-(1-methylethyl)-5-oxo-5H-[1]benzopyrano-[2,3-b]-pyridine-3-carboxylic acid] | approximately 7.5 fold | 12 µg/mL (≈ 40.2 µM) | 5 µg/mL (≈ 16.8 µM) | 580 µg/mL (≈ 1940 µM) | 15300 µg/mL (≈ 51300 µM) |  |  |  | 
2 | CC(F)F [Propellant 152a, 1,1-difluoroethane] |  |  |  |  |  | less than 1 % by weight | 62-64% | 62 to 64% | about 49%
